Experimental data reported in ChEMBL document CHEMBL5131389, “PSMA-targeted small-molecule docetaxel conjugate: Synthesis and preclinical evaluation” (Eur J Med Chem, 2022).
Active and inactive are the calls of the source. The calls are words filed in the database; no cut-off is given here.

What was measured:
[1] = AUC (0 to infinity) in Albino Wistar rat at 15 mg/kg, iv administered as pluronic F127 formulation measured upto 72 hrs by high-performance liquid chromatography tandem mass spectrometric analysis; format: ADME, organism-based; design: dose 15 mg/kg, time < 72 hrs, route iv; settings: in vivo
[2] = Chronic toxicity in rat assessed as reduction in number of crossed squares at 22.5 mg/kg, iv administered as pluronic F127 formulation at 4 intervals for 21 days and observed 3 weeks post last injection; format: organism-based; settings: in vivo, 2544 h, time 106 day
[3] = Half-life in Soviet Chinchilla rabbit at 8.1 mg/kg, iv administered as pluronic F127 formulation measured upto 72 hrs by high-performance liquid chromatography tandem mass spectrometric analysis; format: ADME, organism-based, Oryctolagus cuniculus; settings: in vivo
[4] = Chronic toxicity in rat assessed as neurological disorder at 15 to […] mg/kg, iv administered as pluronic F127 formulation at 4 intervals for 21 days and observed 3 weeks post last injection; format: organism-based; settings: in vivo, 2544 h, dose lower 15 mg/kg, time 106 day
CWR22R [5] = assay: Antitumor activity against human 22Rv1 cells xenografted in Balb/c nude mouse assessed as tumor growth inhibition at 20 mg/kg, ip administered once in two days for three times and measured 7 days after the end of treatment relative to control; format: functional; settings: 22Rv1, 312 h, time 13 day, read-out: TGI
[6] = Chronic toxicity in rat assessed as neurological disorder at 22.5 mg/kg, iv administered as pluronic F127 formulation at 4 intervals for 21 days and observed 3 weeks post last injection; format: organism-based; settings: in vivo, 2544 h, time 106 day
[7] = Chronic toxicity in rat assessed as change in relative density of urine at 22.5 mg/kg, iv administered as pluronic F127 formulation at 4 intervals for 21 days and observed 3 weeks post last injection; format: organism-based; settings: in vivo, 2544 h, time 106 day
[8] = Chronic toxicity in Soviet Chinchilla rabbit assessed as increase in body weight at 12.21 mg/kg, iv administered as pluronic F127 formulation at 4 intervals for 21 days and observed 3 weeks post last injection relative to control; format: organism-based, Oryctolagus cuniculus; settings: in vivo, 2544 h, time 106 day
PC-3 [9] = assay: Effect on cell stiffness in human PC-3 cells assessed as increase in young's modulus at 2.8 nM measured after 1 hr by topography based scanning ion-conductance microscopic analysis; format: functional
[10] = Chronic toxicity in rat assessed as change in relative heart mass at 15 to 18.75 mg/kg, iv administered as pluronic F127 formulation for 4 intervals of 21 days and observed 3 weeks post last injection relative to control; format: organism-based; settings: in vivo, 2544 h, dose 15-18.75 mg/kg, time 106 day
PC-3 [11] = assay: Induction of ROS generation in human PC-3 cells at 800 mV holding potential measured after 1 hr by patch clamp amplifier based optical inverted microscopic analysis; format: functional, cell-based
[12] = Chronic toxicity in Soviet Chinchilla rabbit assessed as decrease in body weight at 10.17 mg/kg, iv administered as pluronic F127 formulation at 4 intervals for 21 days and observed upto day 49; format: organism-based, Oryctolagus cuniculus; settings: in vivo, 1176 h, time < 49 day
[13] = Chronic toxicity in rat assessed as change in volume of excreted urine at 18.75 to 22.5 mg/kg, iv administered as pluronic F127 formulation at 4 intervals for 21 days and observed 3 weeks post last injection; format: organism-based; settings: in vivo, 2544 h, dose 18.75-22.5 mg/kg, time 106 day
DU-145 = assay: Antitumor activity against human DU-145 cells xenografted in BALB/c nude mouse assessed as reduction in tumor growth index at 30 mg/kg, ip measured upto 30 days; format: functional; design: scale not given: the % may be the effect or the level left; settings: time <= 30 day
[14] = Acute toxicity in Wistar rat assessed as coprostasis at 15 to 279 mg/kg, iv administered as pluronic F127 formulation and measured for 14 days; format: organism-based; settings: in vivo, 336 h, dose 15-279 mg/kg, time 14 day
CWR22R [15] = assay: Antitumor activity against human 22Rv1 cells xenografted in Balb/c nude mouse assessed as tumor growth inhibition at 10 mg/kg, ip administered once in two days for three times and measured 7 days after the end of treatment relative to control; format: functional; settings: 22Rv1, 312 h, time 13 day, read-out: TGI
Liver carboxylesterase = target: T1, Liver carboxylesterase (Sus scrofa, UniProt Q29550); assay: Stability of the compound in porcine liver esterase assessed as compound remaining measured upto 96 hrs by LCMS based mass spectrometric analysis relative to initial amount; format: ADME; settings: pig, read-out: Stability
T1 sequence (Q29550 whole entry): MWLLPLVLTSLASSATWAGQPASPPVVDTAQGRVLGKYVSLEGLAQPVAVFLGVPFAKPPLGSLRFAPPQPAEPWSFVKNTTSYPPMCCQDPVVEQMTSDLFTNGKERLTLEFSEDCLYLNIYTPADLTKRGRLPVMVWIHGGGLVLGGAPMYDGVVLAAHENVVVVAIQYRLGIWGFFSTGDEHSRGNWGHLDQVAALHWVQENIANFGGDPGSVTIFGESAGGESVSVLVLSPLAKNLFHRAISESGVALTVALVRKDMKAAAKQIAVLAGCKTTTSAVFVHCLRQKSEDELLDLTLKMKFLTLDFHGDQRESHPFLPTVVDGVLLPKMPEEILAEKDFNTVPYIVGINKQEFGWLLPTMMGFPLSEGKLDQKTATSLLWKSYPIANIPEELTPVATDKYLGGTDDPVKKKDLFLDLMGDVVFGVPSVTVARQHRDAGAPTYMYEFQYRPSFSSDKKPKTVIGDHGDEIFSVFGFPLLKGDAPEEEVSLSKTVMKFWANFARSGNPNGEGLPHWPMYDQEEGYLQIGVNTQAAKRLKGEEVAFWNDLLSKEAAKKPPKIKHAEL

[16] = Acute toxicity in Wistar rat assessed as maximum tolerated dose administered intravenously as pluronic F127 formulation and measured for 14 days; settings: in vivo, route iv, time 14 day
[17] = Stability of the compound in pH 5.5 buffer measured upto 96 hrs by LC-MS based mass spectrometric analysis; format: physicochemical; settings: pH 5.5, 96 h
[18] = Stability of the compound in pH 7.4 buffer measured upto 96 hrs by LC-MS based mass spectrometric analysis; format: physicochemical; settings: pH 7.4, 96 h
[19] = Acute toxicity in ICR mouse assessed as violation of motor activity in hind limb administered intravenously as pluronic F127 formulation and measured for 14 days; settings: in vivo, iv, 336 h, dose 183-960 mg/kg, time 14 day
PC-3 [20] = assay: Cytotoxicity against human PC-3 cells assessed as reduction in cell viability measured after 72 hrs by MTT assay; format: functional
[21] = Subchronic toxicity in Wistar rat assessed as tolerance at 58 mg/kg, iv administered as pluronic F127 formulation daily for 28 days; format: organism-based; settings: in vivo, 672 h, time 28 day
[22] = Toxicity in Balb/c nude mouse xenografted with human 22Rv1 cells assessed as animal death at 10 mg/kg, ip measured upto 30 days; format: organism-based, CWR22R; settings: in vivo, 720 h, time < 30 day
[23] = Clearance in Soviet Chinchilla rabbit at 8.1 mg/kg, iv administered as pluronic F127 formulation measured upto 72 hrs by high-performance liquid chromatography tandem mass spectrometric analysis; format: ADME, organism-based, Oryctolagus cuniculus; settings: in vivo
[24] = Chronic toxicity in rat assessed as reduction in number of peeping into holes at 22.5 mg/kg, iv administered as pluronic F127 formulation at 4 intervals for 21 days and observed 3 weeks post last injection; format: organism-based; settings: in vivo, 2544 h, time 106 day

Q: For CC(=O)O[C@@]12CO[C@@H]1C[C@H](O)[C@@]1(C)C(=O)[C@H](O)C3=C(C)[C@@H](OC(=O)[C@H](OC(=O)CCCc4cn(CCCNC(=O)[C@H](Cc5ccc(O)cc5)NC(=O)[C@H](Cc5ccccc5)NC(=O)CCC(=O)NCCCCCC(=O)N(CCCC[C@H](NC(=O)N[C@@H](CCC(=O)O)C(=O)O)C(=O)O)Cc5cccc(Cl)c5)nn4)[C@@H](NC(=O)OC(C)(C)C)c4ccccc4)C[C@@](O)([C@@H](OC(=O)c4ccccc4)[C@H]21)C3(C)C, which AUC(0-inf) [1] is on record?
A: 34000 ng·h/mL

Q: And the Activity [2]?
A: Toxic

Q: What about the half-life [3] of the same compound?
A: 8.1 h

Q: What about the Activity [4] of the same compound?
A: Non-Toxic

Q: What about the inhibition in vivo at 20 mg/kg (CWR22R [5]) of the same compound?
A: 85%

Q: What about the Activity [6] of the same compound?
A: Toxic

Q: What about the Activity [7] of the same compound?
A: Toxic

Q: And the Activity [8]?
A: Toxic

Q: What about the Activity (PC-3 [9]) of the same compound?
A: Active

Q: What about the Activity [10] of the same compound?
A: Toxic

Q: What about the Activity (PC-3 [11]) of the same compound?
A: Active

Q: What about the Activity [12] of the same compound?
A: Toxic

Q: What about the Activity [13] of the same compound?
A: Toxic

Q: What about the Activity (DU-145) of the same compound?
A: 190.1%

Q: And the Activity [14]?
A: Toxic

Q: And the inhibition in vivo at 10 mg/kg (CWR22R [15])?
A: 87%

Q: What about the remaining at 96 h (Liver carboxylesterase) of the same compound?
A: 60%

Q: And the MTD at 336 h [16]?
A: 15 mg/kg

Q: And the Stability [17]?
A: Unstable

Q: What about the Stability [18] of the same compound?
A: Unstable

Q: What about the Activity [19] of the same compound?
A: Toxic

Q: And the CC50 (PC-3 [20])?
A: 2.8 nM

Q: And the Activity [21]?
A: Toxic

Q: And the Activity [22]?
A: Non-Toxic

Q: What about the clearance [23] of the same compound?
A: 0.483 mL/min/kg

Q: And the Activity [24]?
A: Toxic
